Reference: article PMC6658524, “Lysosomal degradation of newly formed insulin granules contributes to β cell failure in diabetes” (Nature Communications, 2019)

Assays:
Test in all cases: biochemical
EphB1(h) = EphB1(h) (Homo sapiens, UniProt P54762); parameters: Eurofins KinaseProfiler panel of 60 kinases, per cent inhibition
Text: (§1) A more detailed account of the discovery, chemistry and biochemical properties of this novel class of selective p38δ inhibitors will be given elsewhere.

SAPK3(h) = target: T1, SAPK3(h) (Homo sapiens, UniProt P53778); parameters: Eurofins KinaseProfiler panel of 60 kinases, per cent inhibition
T1 construct: gene MAPK12
Text: as §1

c-RAF(h) = target: T2, c-RAF(h) (Homo sapiens, UniProt P04049); parameters: Eurofins KinaseProfiler panel of 60 kinases, per cent inhibition
T2 construct: gene RAF1
Text: as §1

mTOR(h) = mTOR(h) (Homo sapiens, UniProt P42345); parameters: Eurofins KinaseProfiler panel of 60 kinases, per cent inhibition
Text: as §1

Lck(h) activated = Lck(h) activated (Homo sapiens, UniProt P06239); parameters: Eurofins KinaseProfiler panel of 60 kinases, per cent inhibition
Text: as §1

p70S6K(h) = target: T3, p70S6K(h) (Homo sapiens, UniProt P23443); parameters: Eurofins KinaseProfiler panel of 60 kinases, per cent inhibition
T3 construct: gene RPS6KB1
Text: as §1

BTK(h) = BTK(h) (Homo sapiens, UniProt Q06187); parameters: Eurofins KinaseProfiler panel of 60 kinases, per cent inhibition
Text: as §1

CLK2(h) = CLK2(h) (Homo sapiens, UniProt P49760); parameters: Eurofins KinaseProfiler panel of 60 kinases, per cent inhibition
Text: as §1

EphB4(h) = EphB4(h) (Homo sapiens, UniProt P54760); parameters: Eurofins KinaseProfiler panel of 60 kinases, per cent inhibition
Text: as §1

Abl(h) = target: T4, Abl(h) (Homo sapiens, UniProt P00519); parameters: Eurofins KinaseProfiler panel of 60 kinases, per cent inhibition
T4 construct: gene ABL1
Text: as §1

Pim-2(h) = target: T5, Pim-2(h) (Homo sapiens, UniProt Q9P1W9); parameters: Eurofins KinaseProfiler panel of 60 kinases, per cent inhibition
T5 construct: gene PIM2
Text: as §1

Hck(h) activated = Hck(h) activated (Homo sapiens, UniProt P08631); parameters: Eurofins KinaseProfiler panel of 60 kinases, per cent inhibition
Text: as §1

Flt3(h) = Flt3(h) (Homo sapiens, UniProt P36888); parameters: Eurofins KinaseProfiler panel of 60 kinases, per cent inhibition
Text: as §1

BrSK2(h) = BrSK2(h) (Homo sapiens, UniProt Q8IWQ3); parameters: Eurofins KinaseProfiler panel of 60 kinases, per cent inhibition
Text: as §1

IKKε(h) = target: T6, IKKε(h) (Homo sapiens, UniProt Q14164); parameters: Eurofins KinaseProfiler panel of 60 kinases, per cent inhibition
T6 construct: gene IKBKE
Text: as §1

Flt1(h) = Flt1(h) (Homo sapiens, UniProt P17948); parameters: Eurofins KinaseProfiler panel of 60 kinases, per cent inhibition
Text: as §1

PKD1 = target: T7, PKD1 (Homo sapiens, UniProt Q15139); parameters: Kinase inhibition by mobility shift assay (Caliper)
T7 construct: gene PRKD1

Chain of Hck(h) activated (P08631 whole entry): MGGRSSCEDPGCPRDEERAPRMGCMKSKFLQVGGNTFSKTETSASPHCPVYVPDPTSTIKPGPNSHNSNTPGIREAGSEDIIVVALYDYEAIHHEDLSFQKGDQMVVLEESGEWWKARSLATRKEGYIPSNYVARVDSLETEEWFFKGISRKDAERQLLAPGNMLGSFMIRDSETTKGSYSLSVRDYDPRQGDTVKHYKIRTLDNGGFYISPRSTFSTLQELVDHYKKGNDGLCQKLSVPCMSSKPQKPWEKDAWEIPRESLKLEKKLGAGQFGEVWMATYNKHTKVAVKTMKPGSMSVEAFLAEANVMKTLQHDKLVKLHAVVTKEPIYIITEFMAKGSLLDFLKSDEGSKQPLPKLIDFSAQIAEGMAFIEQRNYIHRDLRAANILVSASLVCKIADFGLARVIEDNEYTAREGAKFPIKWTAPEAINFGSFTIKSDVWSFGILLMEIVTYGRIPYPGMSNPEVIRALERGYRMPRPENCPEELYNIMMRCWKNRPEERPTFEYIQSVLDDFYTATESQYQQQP
Chain of EphB1(h) (P54762 whole entry): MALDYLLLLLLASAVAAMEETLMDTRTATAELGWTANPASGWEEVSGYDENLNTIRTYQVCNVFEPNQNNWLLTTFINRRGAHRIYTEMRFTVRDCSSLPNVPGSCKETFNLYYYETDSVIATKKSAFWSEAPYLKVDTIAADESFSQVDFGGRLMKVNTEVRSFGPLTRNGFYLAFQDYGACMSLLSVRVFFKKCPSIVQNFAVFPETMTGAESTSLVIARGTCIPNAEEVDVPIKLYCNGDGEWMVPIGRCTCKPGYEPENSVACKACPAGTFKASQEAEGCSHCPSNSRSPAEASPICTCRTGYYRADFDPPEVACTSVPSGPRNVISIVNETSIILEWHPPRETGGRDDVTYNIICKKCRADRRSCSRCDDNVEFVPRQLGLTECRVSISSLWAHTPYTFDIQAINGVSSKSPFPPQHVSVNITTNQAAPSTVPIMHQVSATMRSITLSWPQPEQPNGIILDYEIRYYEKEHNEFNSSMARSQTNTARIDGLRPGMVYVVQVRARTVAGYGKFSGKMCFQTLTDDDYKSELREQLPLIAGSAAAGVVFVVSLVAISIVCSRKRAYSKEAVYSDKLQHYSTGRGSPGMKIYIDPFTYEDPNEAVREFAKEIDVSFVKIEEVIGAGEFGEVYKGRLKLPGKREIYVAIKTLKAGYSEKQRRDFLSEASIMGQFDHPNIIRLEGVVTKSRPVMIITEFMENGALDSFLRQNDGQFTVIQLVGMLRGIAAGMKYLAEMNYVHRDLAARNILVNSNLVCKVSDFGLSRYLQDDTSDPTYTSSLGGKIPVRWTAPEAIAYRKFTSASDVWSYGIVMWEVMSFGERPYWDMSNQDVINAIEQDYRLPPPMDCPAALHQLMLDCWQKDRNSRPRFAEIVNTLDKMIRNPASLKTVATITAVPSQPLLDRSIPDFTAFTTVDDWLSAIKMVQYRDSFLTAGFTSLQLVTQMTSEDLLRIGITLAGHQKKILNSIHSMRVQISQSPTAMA
Chain of EphB4(h) (P54760 whole entry): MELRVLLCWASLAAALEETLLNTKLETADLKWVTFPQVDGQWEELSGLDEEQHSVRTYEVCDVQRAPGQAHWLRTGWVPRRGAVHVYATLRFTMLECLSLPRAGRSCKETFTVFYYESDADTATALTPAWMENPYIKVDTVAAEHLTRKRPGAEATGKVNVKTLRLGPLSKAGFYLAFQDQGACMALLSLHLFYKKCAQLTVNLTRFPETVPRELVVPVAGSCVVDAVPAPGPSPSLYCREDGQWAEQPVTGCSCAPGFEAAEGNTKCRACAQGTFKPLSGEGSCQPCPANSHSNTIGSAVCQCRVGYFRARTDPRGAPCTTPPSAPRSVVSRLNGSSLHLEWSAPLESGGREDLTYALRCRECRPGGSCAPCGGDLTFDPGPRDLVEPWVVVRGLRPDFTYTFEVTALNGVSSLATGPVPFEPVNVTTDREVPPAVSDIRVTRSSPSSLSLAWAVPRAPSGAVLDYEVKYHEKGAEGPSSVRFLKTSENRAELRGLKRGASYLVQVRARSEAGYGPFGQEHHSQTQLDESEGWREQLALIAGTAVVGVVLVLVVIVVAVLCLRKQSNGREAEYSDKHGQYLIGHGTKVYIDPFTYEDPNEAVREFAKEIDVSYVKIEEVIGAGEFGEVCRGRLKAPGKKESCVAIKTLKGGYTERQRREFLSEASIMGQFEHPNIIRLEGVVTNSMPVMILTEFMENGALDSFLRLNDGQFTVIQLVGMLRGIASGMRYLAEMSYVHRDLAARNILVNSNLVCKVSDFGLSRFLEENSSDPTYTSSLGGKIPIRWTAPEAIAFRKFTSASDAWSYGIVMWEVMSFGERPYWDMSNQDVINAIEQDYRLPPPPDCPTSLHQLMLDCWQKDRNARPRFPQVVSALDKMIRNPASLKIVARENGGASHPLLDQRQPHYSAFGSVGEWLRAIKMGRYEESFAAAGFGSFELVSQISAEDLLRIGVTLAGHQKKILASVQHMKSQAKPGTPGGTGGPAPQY
Chain of CLK2(h) (P49760 whole entry): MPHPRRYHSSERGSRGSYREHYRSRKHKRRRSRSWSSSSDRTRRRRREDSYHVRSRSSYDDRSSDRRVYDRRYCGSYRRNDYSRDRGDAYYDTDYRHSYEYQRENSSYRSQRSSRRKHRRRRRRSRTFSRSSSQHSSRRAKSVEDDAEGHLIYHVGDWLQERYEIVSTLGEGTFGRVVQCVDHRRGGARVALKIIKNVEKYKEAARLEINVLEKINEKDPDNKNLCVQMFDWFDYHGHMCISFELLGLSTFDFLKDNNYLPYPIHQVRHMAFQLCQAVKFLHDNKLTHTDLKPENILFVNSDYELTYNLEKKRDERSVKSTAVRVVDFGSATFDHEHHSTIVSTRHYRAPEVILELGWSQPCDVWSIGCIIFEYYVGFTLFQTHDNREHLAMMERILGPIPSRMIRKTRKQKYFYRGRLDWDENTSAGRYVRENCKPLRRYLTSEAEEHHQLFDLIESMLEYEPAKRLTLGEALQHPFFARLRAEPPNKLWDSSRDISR
Chain of Flt3(h) (P36888 whole entry): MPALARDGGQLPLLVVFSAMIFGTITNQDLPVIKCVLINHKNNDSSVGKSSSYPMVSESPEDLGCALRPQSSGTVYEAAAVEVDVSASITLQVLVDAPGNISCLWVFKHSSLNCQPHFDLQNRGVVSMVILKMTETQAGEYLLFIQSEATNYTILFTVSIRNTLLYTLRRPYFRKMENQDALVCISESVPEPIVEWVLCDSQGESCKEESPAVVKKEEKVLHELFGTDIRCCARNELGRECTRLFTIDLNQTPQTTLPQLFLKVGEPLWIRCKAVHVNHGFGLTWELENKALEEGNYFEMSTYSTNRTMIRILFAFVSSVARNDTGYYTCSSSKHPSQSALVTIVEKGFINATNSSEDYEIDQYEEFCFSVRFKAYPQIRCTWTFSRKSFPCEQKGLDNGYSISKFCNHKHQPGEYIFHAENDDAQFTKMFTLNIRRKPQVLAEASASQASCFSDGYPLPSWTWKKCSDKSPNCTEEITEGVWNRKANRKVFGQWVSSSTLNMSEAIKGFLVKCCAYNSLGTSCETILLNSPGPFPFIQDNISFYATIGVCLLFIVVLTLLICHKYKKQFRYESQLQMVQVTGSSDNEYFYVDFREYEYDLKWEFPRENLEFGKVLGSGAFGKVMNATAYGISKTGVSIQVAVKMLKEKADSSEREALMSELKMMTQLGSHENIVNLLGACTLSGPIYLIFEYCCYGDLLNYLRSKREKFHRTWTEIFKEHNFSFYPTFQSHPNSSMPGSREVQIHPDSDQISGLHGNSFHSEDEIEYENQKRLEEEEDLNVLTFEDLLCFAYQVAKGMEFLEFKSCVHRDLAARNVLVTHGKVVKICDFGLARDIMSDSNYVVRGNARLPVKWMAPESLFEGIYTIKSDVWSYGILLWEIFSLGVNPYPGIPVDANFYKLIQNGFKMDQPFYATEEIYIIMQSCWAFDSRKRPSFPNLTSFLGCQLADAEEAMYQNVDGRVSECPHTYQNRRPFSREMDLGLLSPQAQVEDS
Chain of Lck(h) activated (P06239 whole entry): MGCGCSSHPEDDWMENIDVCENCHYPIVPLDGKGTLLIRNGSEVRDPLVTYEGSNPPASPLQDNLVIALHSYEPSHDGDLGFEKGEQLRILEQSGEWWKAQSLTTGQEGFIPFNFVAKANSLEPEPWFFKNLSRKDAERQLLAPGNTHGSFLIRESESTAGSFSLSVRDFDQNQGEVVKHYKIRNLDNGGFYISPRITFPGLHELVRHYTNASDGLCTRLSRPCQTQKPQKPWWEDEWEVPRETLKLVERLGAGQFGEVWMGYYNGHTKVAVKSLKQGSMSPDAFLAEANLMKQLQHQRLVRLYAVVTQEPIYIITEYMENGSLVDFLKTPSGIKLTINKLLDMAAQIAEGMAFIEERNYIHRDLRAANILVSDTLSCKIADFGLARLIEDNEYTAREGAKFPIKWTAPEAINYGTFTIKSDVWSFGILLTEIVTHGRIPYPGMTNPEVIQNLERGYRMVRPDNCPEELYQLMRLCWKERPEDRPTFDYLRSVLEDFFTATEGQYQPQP
T5 sequence (Q9P1W9 whole entry): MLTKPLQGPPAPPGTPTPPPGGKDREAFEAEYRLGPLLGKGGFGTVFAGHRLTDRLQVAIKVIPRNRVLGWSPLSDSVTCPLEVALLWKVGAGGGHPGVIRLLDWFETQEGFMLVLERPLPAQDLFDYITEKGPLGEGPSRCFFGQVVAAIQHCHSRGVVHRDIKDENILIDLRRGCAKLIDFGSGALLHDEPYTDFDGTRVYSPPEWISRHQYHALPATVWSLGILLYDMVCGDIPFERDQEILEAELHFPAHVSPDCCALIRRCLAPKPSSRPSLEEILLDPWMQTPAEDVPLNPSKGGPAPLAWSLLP

CCN1CCOc2nc(N3CCOCC3)nc(-c3ccc(NC(=O)OC)cc3)c2C1=O [Compound A]
inhibition at 1 µM (EphB1(h)): 6%
inhibition at 10 µM (EphB1(h)): 10%
inhibition at 1 µM (SAPK3(h)): 11%
inhibition at 1 µM (c-RAF(h)): -5%
inhibition at 10 µM (c-RAF(h)): 2%
inhibition at 1 µM (mTOR(h)): -1%
inhibition at 1 µM (Lck(h) activated): -7%
inhibition at 10 µM (Lck(h) activated): 13%
inhibition at 1 µM (p70S6K(h)): 15%
inhibition at 1 µM (BTK(h)): -1%
inhibition at 10 µM (BTK(h)): 0%
inhibition at 1 µM (CLK2(h)): -2%
inhibition at 10 µM (CLK2(h)): -2%
inhibition at 1 µM (EphB4(h)): -3%
inhibition at 10 µM (EphB4(h)): 8%
inhibition at 1 µM (Abl(h)): 6%
inhibition at 10 µM (Abl(h)): 8%
inhibition at 1 µM (Pim-2(h)): 8%
inhibition at 10 µM (Pim-2(h)): 7%
inhibition at 1 µM (Hck(h) activated): -5%
inhibition at 10 µM (Hck(h) activated): 5%
inhibition at 1 µM (Flt3(h)): -30%
inhibition at 10 µM (Flt3(h)): -25%
inhibition at 1 µM (BrSK2(h)): 5%
inhibition at 10 µM (BrSK2(h)): 5%
inhibition at 1 µM (IKKε(h)): 16%
inhibition at 10 µM (IKKε(h)): 18%
inhibition at 1 µM (Flt1(h)): -30%
inhibition at 10 µM (Flt1(h)): -28%
IC50 (PKD1): > 30 µM
